According to patent US11286243B2 (GLOBAL BLOOD THERAPEUTICS, INC., priority 2018, dated 2022):

Biological target: T1, human ferroportin (Homo sapiens, UniProt Q9NP59)
T1 construct: luciferase reporter (probably NanoLuc: read with the Nano-Glo Luciferase Assay System); expressed in transfected cells; host or cells: CHO cells, stably transfected, doxycycline-inducible expression
T1 sequence (Q9NP59 1-571): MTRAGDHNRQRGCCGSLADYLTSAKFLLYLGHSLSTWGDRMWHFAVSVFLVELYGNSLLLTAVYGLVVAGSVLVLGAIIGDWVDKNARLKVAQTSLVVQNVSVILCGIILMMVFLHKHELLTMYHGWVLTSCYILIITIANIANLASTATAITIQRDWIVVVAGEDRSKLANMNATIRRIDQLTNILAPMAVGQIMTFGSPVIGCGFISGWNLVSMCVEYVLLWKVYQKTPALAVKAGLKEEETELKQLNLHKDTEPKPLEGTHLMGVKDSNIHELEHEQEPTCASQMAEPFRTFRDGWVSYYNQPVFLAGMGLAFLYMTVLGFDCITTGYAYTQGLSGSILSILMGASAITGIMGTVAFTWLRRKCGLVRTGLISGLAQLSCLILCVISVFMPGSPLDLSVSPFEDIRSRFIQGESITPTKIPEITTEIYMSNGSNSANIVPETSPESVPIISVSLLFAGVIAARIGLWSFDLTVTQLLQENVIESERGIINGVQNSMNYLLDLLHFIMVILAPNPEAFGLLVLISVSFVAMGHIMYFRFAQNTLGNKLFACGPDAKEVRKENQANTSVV
Assay: In-vitro ferroportin internalization assay (luciferase reporter)
Assay type: cell-based
Conditions: average pEC50; stably-transfected CHO cell line expressing human ferroportin tagged to a luciferase reporter; 6 h incubation with test compounds
Method: The protocol for this assay is generally as described in WO2018/128828, incorporated herein by reference in its entirety. Functional internalization of ferroportin protein was measured using a stably-transfected CHO cell line expressing the human ferroportin tagged to a luciferase reporter. Cells were plated for 24 h in the presence of ferric ammonium citrate (FAC). Ferroportin protein expression was induced with doxycycline for 24 h. The next day, the compounds were added. Test compounds were dissolved in DMSO. Cells were incubated with the test compounds for 6 h, and subsequently luciferase activity was measured using the Nano-Glo Luciferase Assay System and Glomax (Promega, Madison, Wis.).
The average pEC50 was determined for the test compounds.

SMILES | pEC50
C[C@@H](Cc1nc2c(NCc3ncccc3F)ncnc2s1)NCCc1nc2ccccc2[nH]1 [Compound 28, 2-[(2S)-2-{[2-(1H-1,3-benzodiazol-2-yl)ethyl]amino}propyl]-N-[(3-fluoropyridin-2-yl)methyl]-[1,3]thiazolo[5,4-d]pyrimidin-7-amine] | 6.3
CC(=O)NOc1nc(NCc2ncccc2F)c2nc(CCNCCc3nc4ccccc4[nH]3)sc2n1 [Compound 29, N-{[2-(2-{[2-(1H-1,3-benzodiazol-2-yl)ethyl]amino}ethyl)-7-{[(3-fluoropyridin-2-yl)methyl]amino}-[1,3]thiazolo[5,4-d]pyrimidin-5-yl]oxy}acetamide] | 5.2
Fc1cccnc1CNc1ncnc2sc(C(F)CNCCc3nc4ccccc4[nH]3)nc12 (stereo not drawn) [Compound 30, 2-(2-{[2-(1H-1,3-benzodiazol-2-yl)ethyl]amino}-1-fluoroethyl)-N-[(3-fluoropyridin-2-yl)methyl]-[1,3]thiazolo[5,4-d]pyrimidin-7-amine] | 7.3
Cc1nc(NCc2ncccc2F)c2nc(CCNCCc3nc4ccccc4[nH]3)sc2n1 [Compound 31, 2-(2-{[2-(1H-1,3-benzodiazol-2-yl)ethyl]amino}ethyl)-N-[(3-fluoropyridin-2-yl)methyl]-5-methyl-[1,3]thiazolo[5,4-d]pyrimidin-7-amine] | 5.6
[N-]=[N+]=Nc1cccnc1CNc1ncnc2sc(CCNCCc3nc4cc(I)ccc4[nH]3)nc12 [Compound 32, N-[(3-azidopyridin-2-yl)methyl]-2-(2-{[2-(5-iodo-1H-1,3-benzodiazol-2-yl)ethyl]amino}ethyl)-[1,3]thiazolo[5,4-d]pyrimidin-7-amine] | 6.9
Fc1cccnc1CNc1ncnc2sc(CCNCCc3nc4ncccc4[nH]3)nc12 [Compound 33, N-[(3-fluoropyridin-2-yl)methyl]-2-{2-[(2-{1H-imidazo[4,5-b]pyridin-2-yl}ethyl)amino]ethyl}-[1,3]thiazolo[5,4-d]pyrimidin-7-amine] | 6.2
O=c1c2ccccc2[nH]n1CCNCCc1nc2c(NCc3ncccc3F)ncnc2s1 [Compound 34, 2-(2-{[2-(7-{[(3-fluoropyridin-2-yl)methyl]amino}-[1,3]thiazolo[5,4-d]pyrimidin-2-yl)ethyl]amino}ethyl)-2,3-dihydro-1H-indazol-3-one] | 5.1
Fc1cccnc1CNc1ncnc2sc(CCNCCc3ncc(-c4ccccc4)[nH]3)nc12 [Compound 35, N-[(3-fluoropyridin-2-yl)methyl]-2-(2-{[2-(5-phenyl-1H-imidazol-2-yl)ethyl]amino}ethyl)-[1,3]thiazolo[5,4-d]pyrimidin-7-amine] | 7.1
Oc1nc(NCc2ncccc2F)c2nc(CCNCCc3nc4ccccc4[nH]3)oc2n1 [Compound 36, 2-(2-{[2-(1H-1,3-benzodiazol-2-yl)ethyl]amino}ethyl)-7-{[(3-fluoropyridin-2-yl)methyl]amino}-[1,3]oxazolo[5,4-d]pyrimidin-5-ol] | 6.4
Fc1cccnc1CNc1ncnc2sc(CCNCCc3nc4cnccc4[nH]3)nc12 [Compound 37, N-[(3-fluoropyridin-2-yl)methyl]-2-{2-[(2-{1H-imidazo[4,5-c]pyridin-2-yl}ethyl)amino]ethyl}-[1,3]thiazolo[5,4-d]pyrimidin-7-amine] | 5.6
CC(NCCc1nc2c(NCc3ncccc3F)ncnc2s1)c1ccccc1O (stereo not drawn) [Compound 38, 2-(1-{[2-(7-{[(3-fluoropyridin-2-yl)methyl]amino}-[1,3]thiazolo[5,4-d]pyrimidin-2-yl)ethyl]amino}ethyl)phenol] | 4.9
C#CCCC1(CCC(=O)NCc2ccc3[nH]c(CCNCCc4nc5c(NCc6ncccc6F)ncnc5s4)nc3c2)N=N1 [Compound 39, 3-[3-(but-3-yn-1-yl)-3H-diazirin-3-yl]-N-{[2-(2-{[2-(7-{[(3-fluoropyridin-2-yl)methyl]amino}-[1,3]thiazolo[5,4-d]pyrimidin-2-yl)ethyl]amino}ethyl)-1H-1,3-benzodiazol-5-yl]methyl}propanamide] | 6.9
